Article PMC8596838, “Xylose‐Configured Cyclophellitols as Selective Inhibitors for Glucocerebrosidase” (Chembiochem, 2021)

Legend:
[1] = target: T1, rhGBA (recombinant human GBA, Imiglucerase) (Homo sapiens, UniProt P04062, R534H); assay: Fluorogenic substrate (4-MU-β-D-glucoside) enzymatic assay, rhGBA; type: biochemical; conditions: for IC50: incubation time 30 min, enzymatic assay, ±SD, n=3, read-out: In vitro apparent IC50 rhGBA
T1 construct: purchased Sanofi Genzyme (Cambridge, MA, USA)
T1 sequence (P04062 40-536 R534H): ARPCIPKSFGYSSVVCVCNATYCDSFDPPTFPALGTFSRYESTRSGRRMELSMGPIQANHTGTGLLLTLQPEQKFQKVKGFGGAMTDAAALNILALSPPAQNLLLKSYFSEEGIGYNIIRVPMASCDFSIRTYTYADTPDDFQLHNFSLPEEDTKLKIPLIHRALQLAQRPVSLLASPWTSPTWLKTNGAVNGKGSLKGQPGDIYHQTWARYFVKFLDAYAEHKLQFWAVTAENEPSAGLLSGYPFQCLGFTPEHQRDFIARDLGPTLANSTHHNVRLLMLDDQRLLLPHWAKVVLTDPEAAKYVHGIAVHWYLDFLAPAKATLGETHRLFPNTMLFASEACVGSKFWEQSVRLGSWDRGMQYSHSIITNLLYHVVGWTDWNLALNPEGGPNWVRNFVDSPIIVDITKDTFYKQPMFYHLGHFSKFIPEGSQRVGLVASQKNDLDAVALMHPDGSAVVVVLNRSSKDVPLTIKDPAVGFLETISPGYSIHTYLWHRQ
Description: Using fluorogenic substrate‐based assays, we determined apparent IC50 values at 30 min incubation time of the xylo‐cyclophellitols in rhGBA, and GBA2 and GBA3 lysates of cells expressing only each of the enzymes specifically.
Enzyme activity assays: All assays were performed with lysates of HEK293T cells or zebrafish larvae in 96‐well plates at 37 °C. Samples were diluted with McIlvaine buffer (150 mM citric acid‐Na2HPO4) to a final volume of 25 μL, at pH appropriate for each enzyme. Assays were performed by incubating the samples with 100 μL 4‐methylumbelliferyl‐β‐D‐glucoside substrates diluted in McIlvaine buffer (with 0.1 % (w/v) bovine serum albumin (BSA)) for a period of 30 min or 3 h. The substrate mixtures used for each enzyme were as follows: GBA, 3.75 mM 4‐MU‐β‐D‐glucopyranoside (Glycosynth, Warrington Cheshire, UK) at pH 5.2, supplemented with 0.2 % (w/v) sodium taurocholate, 0.1 % (v/v) Triton X‐100, 0.1 % (w/v) bovine serum albumin (BSA); GBA2, 3.75 mM 4 MU‐β‐D‐glucopyranoside at pH 5.8; GBA3, 3.75 mM 4‐MU‐β‐D‐glucopyranoside at pH 6.0. After stopping the enzyme reaction with 200 μL 1 M NaOH‐glycine (pH 10.3), 4‐methylumbelliferone fluorescence was measured with a fluorimeter LS55 (Perkin Elmer, Waltham, MA, USA) with λEX 366 nm and λEM 445 nm. Enzyme activities were determined by subtraction of background (measured for incubations without enzyme). IC50 values were determined exactly as earlier described.[36]
The IC50 values were determined using a fluorogenic enzymatic assay. For GBA, 3.16 ng (53 fmol) of rhGBA, (recombinant human GBA, Imiglucerase) obtained from Sanofi Genzyme (Cambridge, MA, USA), was prepared in 12.5 μL McIlvaine buffer (150 mM, pH 5.2) supplemented with 0.1 % (v/v) Triton X‐100, and 0.2 % (w/v) sodium taurocholate, 0.1 % (w/v) bovine serum albumin (BSA). The enzyme was incubated with 12.5 μL of inhibitors diluted in McIlvaine buffer (150 mM, pH 5.2) at 37 °C for 30 min. In the case of GBA2 or GBA3, lysates of GBA/GBA2 KO HEK293T cells overexpressing GBA2 or GBA3, respectively where used. The enzymatic activity of GBA, GBA2 and GBA3 were measured with 4MU‐β‐D‐glucoside substrate as described above.

GBA3 = target: T2, GBA3 (Homo sapiens, UniProt Q9H227); assay: Competitive ABPP (cABPP) with ABP 10 in HEK293T cell lysates, GBA3; type: biochemical; conditions: cell lysate, 30 min incubation
T2 construct: expressed in transfected cells; host or cells: HEK293T (GBA/GBA2 KO background for the fluorogenic assay; endogenous-GBA background with GBA2 and GBA3 overexpressed for ABPP and intact-cell assays)
T2 sequence (Q9H227 1-469): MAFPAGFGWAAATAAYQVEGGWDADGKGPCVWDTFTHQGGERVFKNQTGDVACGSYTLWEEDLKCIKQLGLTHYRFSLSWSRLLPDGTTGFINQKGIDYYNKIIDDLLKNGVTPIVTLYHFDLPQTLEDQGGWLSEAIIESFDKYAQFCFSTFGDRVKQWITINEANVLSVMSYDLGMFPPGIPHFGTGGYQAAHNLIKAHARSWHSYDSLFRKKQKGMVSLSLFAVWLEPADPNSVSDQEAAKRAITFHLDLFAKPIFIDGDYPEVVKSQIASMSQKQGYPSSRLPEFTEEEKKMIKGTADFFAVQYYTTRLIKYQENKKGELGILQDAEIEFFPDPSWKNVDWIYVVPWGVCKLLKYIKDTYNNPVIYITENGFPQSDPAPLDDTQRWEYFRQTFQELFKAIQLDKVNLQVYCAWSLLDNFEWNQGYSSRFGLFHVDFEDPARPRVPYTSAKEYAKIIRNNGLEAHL
Description: In the first instance, the inhibitory potency of 1 and 2 for GBA, GBA2, and GBA3 was assessed by competitive activity‐based protein profiling (cABPP). For this, we first generated HEK293T cells that contain endogenous GBA and overexpress human GBA2 and GBA3.
Figure 3 Selectivity of compounds visualized by competitive ABPP labeling of β‐D‐glucosidase. Lysates of HEK293T cells expressing human GBA, GBA2 and GBA3 were incubated with compounds 1–5 at indicated concentrations for 30 min, following by cABPP with ABP 10.
ABP labeling procedure: Glycosidases were labeled with excess fluorescent ABPs at optimum conditions. ABP labeling was performed at 37 °C for 30 min for all materials (if not otherwise stated), in a total sample volume of 20–40 μL and 0.5–1 % DMSO concentration. GBA was labeled with 200 nM ABP 9 (pH 5.2, 0.1 % (v/v) Triton‐100, 0.2 % (w/v) sodium taurocholate), or labeled together with GBA2 using 200 nM β‐D‐glucose‐configured aziridine ABP 10 at pH 5.8, or labeling together with GBA2 and GBA3 using 200 nM β‐D‐glucose‐configured aziridine ABP 10 at pH 6.0. After ABP incubation, proteins were denatured by boiling the samples with 5× Laemmli buffer (50 % (v/v) 1 M Tris‐HCl, pH 6.8, 50 % (v/v) 100 % glycerol, 10 % (w/v) DTT, 10 % (w/v) SDS, 0.01 % (w/v) bromophenol blue) for 5 min at 98 °C, and separated by electrophoresis on 10 % (w/v) SDS‐PAGE gels running continuously at 90 V. Wet slab‐gels were scanned on fluorescence using the Typhoon FLA 9500 (GE Healthcare) at λEX 473 nm and λEM≥510 nm for green fluorescent ABP 8; and at λEX 635 nm and λEM≥665 nm for ABP 6, 9 and 10. ABP‐emitted fluorescence was quantified using ImageQuant software (GE Healthcare, Chicago, IL, USA) and curve‐fitted using Prism 8.0 (GraphPad Software). After fluorescence scanning, SDS‐PAGE gels were stained for total protein with Coomassie G250 and scanned on a ChemiDoc MP imager (Bio‐Rad, Hercules, CA, USA).[25]

CN1/C(=C/C=C/C=C/C2=[N+](CCCCCC(=O)NCc3cn(CCCCCCCCN4[C@H]5[C@H](O)[C@@H](O)[C@H](O)C[C@H]54)nn3)c3ccccc3C2(C)C)C(C)(C)c2ccccc21 (stereo partly drawn) [ABP 6]
IC50 [1]: 6.44 ± 0.49 nM

CN1/C(=C/C=C/C=C/C2=[N+](CCCCCC(=O)NCc3cn(C[C@@H]4[C@@H](O)[C@H](O)[C@@H](O)[C@@H]5O[C@H]45)nn3)c3ccccc3C2(C)C)C(C)(C)c2ccccc21 [ABP 9, reference compound]
IC50 [1]: 45.2 ± 4.54 nM

O[C@@H]1[C@@H](O)[C@H](O)C[C@H]2O[C@@H]12 [compound 1, xylo‐cyclophellitol]
IC50 [1]: 2670 ± 94.5 nM | competition of ABP 10 labeling of GBA3 (GBA3): but not that of GBA2 or GBA3

O[C@@H]1[C@@H](O)[C@H](O)C[C@H]2N[C@@H]12 [compound 2, β‐D‐xylo‐Cyclophellitol aziridine]
IC50 [1]: 719 ± 196 nM

OC[C@@H]1[C@@H](O)[C@H](O)[C@@H](O)[C@@H]2O[C@H]12 [compound 3, cyclophellitol]
IC50 [1]: 400 ± 12.4 nM | competition of ABP 10 labeling of GBA3 (GBA3): with less potency

OC[C@@H]1[C@@H](O)[C@H](O)[C@@H](O)[C@@H]2N[C@H]12 [compound 4, cyclophellitol aziridine, reference compound]
IC50 [1]: 341 ± 5.82 nM | competition of ABP 10 labeling of GBA3 (GBA3): with less potency

[N-]=[N+]=NCCCCCCCCN1[C@H]2[C@H](O)[C@@H](O)[C@H](O)C[C@H]21 (stereo partly drawn) [compound 5]
potency against GBA compared to unsubstituted xylo-cyclophellitol aziridine 2 ([1]; in vitro, 30 min): 600 fold | IC50 [1]: 1.2 ± 0.06 nM | competition of ABP 10 labeling of GBA3 (GBA3): greatly enhances inhibitory potency
